In patent US20150105252A1, “SUBSTITUTED PYRAZOLES AS HERBICIDES” (E I DU PONT DE NEMOURS AND COMPANY, priority 2013, published 2015):

Columns and labels:
Settings in all cases: scale 0 to 100
buckwheat, wild = assay: Test D preemergence; assay type: in vivo, Polygonum convolvulus
From the text: (§1) Seeds of plant species selected from bluegrass (annual bluegrass, Poa annua), blackgrass (Alopecurus myosuroides), canarygrass (littleseed canarygrass, Phalaris minor), chickweed (common chickweed, Stellaria media), galium (catchweed bedstraw, Galium aparine), bromegrass, downy (downy bromegrass, Bromus tectorum), field poppy (Papaver rhoeas), field violet (Viola arvensis), foxtail, green (green foxtail, Setaria viridis), deadnettle (henbit deadnettle, Lamium amplexicaule), ryegrass, Italian (Italian ryegrass, Lolium multiflorum), kochia (Kochia scoparia), lambsquarters (Chenopodium album), oilseed rape (Brassica napus), pigweed (redroot pigweed, Amaranthus retroflexus), chamomile (scentless chamomile, Matricaria inodora), speedwell (bird's-eye speedwell, Veronica persica), barley, spring (spring barley, Hordeum vulgare), wheat, spring (spring wheat, Triticum aestivum), buckwheat, wild (wild buckwheat, Polygonum convolvulus), mustard, wild (wild mustard, Sinapis arvensis), oat, wild (wild oat, Avena fatua), radish, wild (wild radish, Raphanus raphanistrum), windgrass (Apera spica-venti), Russian thistle (Salsola kali), barley, winter (winter barley, Hordeum vulgare), and wheat, winter (winter wheat, Triticum aestivum) were planted into a silt loam soil and treated preemergence with test chemicals formulated in a non-phytotoxic solvent mixture which included a surfactant.
(§2) At the same time, these species were planted in pots containing Redi-Earth® planting medium (Scotts Company, 14111 Scottslawn Road, Marysville, Ohio 43041) comprising spaghnum peat moss, vermiculite, wetting agent and starter nutrients and treated with postemergence applications of the test chemicals formulated in the same manner. Plants ranged in height from 2 to 18 cm (1- to 4-leaf stage). Treated plants and controls were maintained in a controlled growth environment for 14 to 21 days after which time all species were compared to controls and visually evaluated. Plant response ratings, summarized in Table D, are based on a scale of 0 to 100 where 0 is no effect and 100 is complete control. A dash (-) response means no test result.

canarygrass [1] = assay: Test D postemergence; assay type: in vivo, Phalaris minor
From the text: as §1, §2

bromegrass, downy = assay: Test D postemergence; assay type: in vivo, Bromus tectorum
From the text: as §1, §2

wheat, spring = assay: Test D preemergence; assay type: in vivo, Triticum aestivum
From the text: as §1, §2

wheat, winter = assay: Test D preemergence; assay type: in vivo, Triticum aestivum
From the text: as §1, §2

blackgrass = assay: Test D preemergence; assay type: in vivo, Alopecurus myosuroides
From the text: as §1, §2

canarygrass [2] = assay: Test D preemergence; assay type: in vivo, Phalaris minor
From the text: as §1, §2

mustard, wild = assay: Test D postemergence; assay type: in vivo, Sinapis arvensis
From the text: as §1, §2

kochia = assay: Test D preemergence; assay type: in vivo, Kochia scoparia
From the text: as §1, §2

galium = assay: Test D preemergence; assay type: in vivo, Galium aparine
From the text: as §1, §2

Compound	Plant response rating, Buckwheat, Wild (buckwheat, wild; 31 g ai/ha)	Plant response rating, Buckwheat, Wild (buckwheat, wild; 62 g ai/ha)	Plant response rating, Buckwheat, Wild (buckwheat, wild; 125 g ai/ha)	Plant response rating, Buckwheat, Wild (buckwheat, wild; 250 g ai/ha)	Canarygrass plant response rating (canarygrass [1]; Postemergence, 31 g ai/ha)	Canarygrass plant response rating (canarygrass [1]; Postemergence, 125 g ai/ha)	Canarygrass plant response rating (canarygrass [1]; Postemergence, 250 g ai/ha)	Canarygrass plant response rating (canarygrass [1]; postemergence, 62 g ai/ha)	Bromegrass, Downy plant response rating (bromegrass, downy; Postemergence, 31 g ai/ha)	Bromegrass, Downy plant response rating (bromegrass, downy; Postemergence, 125 g ai/ha)	Bromegrass, Downy plant response rating (bromegrass, downy; Postemergence, 250 g ai/ha)	Bromegrass, Downy plant response rating (bromegrass, downy; postemergence, 62 g ai/ha)	Plant response rating, Wheat, Spring (wheat, spring; 62 g ai/ha)	Plant response rating, Wheat, Spring (wheat, spring; 125 g ai/ha)	Plant response rating, Wheat, Spring (wheat, spring; 250 g ai/ha)	Plant response rating, Wheat, Winter (wheat, winter; 62 g ai/ha)	Plant response rating, Wheat, Winter (wheat, winter; 125 g ai/ha)	Plant response rating, Wheat, Winter (wheat, winter; 250 g ai/ha)	Plant response rating, Blackgrass (blackgrass; 62 g ai/ha)	Plant response rating, Blackgrass (blackgrass; 125 g ai/ha)	also measured
CCc1cc(C(=O)NC(C)C)nn1Cc1ccnc(C(F)(F)F)c1 [Compound 103]	75	100	100	100	5	10	10	5	5	15	15	10	10	25	85	10	65	70	50	85	Plant response rating, Wheat, Spring (wheat, spring; 31 g ai/ha): 0; Plant response rating, Wheat, Winter (wheat, winter; 31 g ai/ha): 0; Plant response rating, Blackgrass (blackgrass; 250 g ai/ha): 100; Plant response rating, Canarygrass (canarygrass [2]; 31 g ai/ha): 5; Plant response rating, Canarygrass (canarygrass [2]; 62 g ai/ha): 55; Plant response rating, Canarygrass (canarygrass [2]; 125 g ai/ha): 80; Plant response rating, Canarygrass (canarygrass [2]; 250 g ai/ha): 100; Mustard, Wild plant response rating (mustard, wild; Postemergence, 31 g ai/ha): 25; Mustard, Wild plant response rating (mustard, wild; Postemergence, 125 g ai/ha): 60; Mustard, Wild plant response rating (mustard, wild; Postemergence, 250 g ai/ha): 60; Mustard, Wild plant response rating (mustard, wild; postemergence, 62 g ai/ha): 45; Plant response rating, Kochia (kochia; 31 g ai/ha): 10; Plant response rating, Kochia (kochia; 62 g ai/ha): 65; Plant response rating, Kochia (kochia; 125 g ai/ha): 85; Plant response rating, Kochia (kochia; 250 g ai/ha): 100; Plant response rating, Galium (galium; 31 g ai/ha): 50; Plant response rating, Galium (galium; 62 g ai/ha): 100; Plant response rating, Galium (galium; 125 g ai/ha): 100; Plant response rating, Galium (galium; 250 g ai/ha): 100
CCCc1cc(C(=O)NCC(F)(F)F)nn1Cc1cc(C(F)(F)F)nn1C [Compound 138]	45	50	70	100	5	25	70	5	10	30	20	10	10	35	50	30	40	60	30	85	Plant response rating, Blackgrass (blackgrass; 31 g ai/ha): 15; Plant response rating, Blackgrass (blackgrass; 250 g ai/ha): 100; Plant response rating, Canarygrass (canarygrass [2]; 31 g ai/ha): 15; Plant response rating, Canarygrass (canarygrass [2]; 62 g ai/ha): 70; Plant response rating, Canarygrass (canarygrass [2]; 125 g ai/ha): 100; Plant response rating, Canarygrass (canarygrass [2]; 250 g ai/ha): 100; Mustard, Wild plant response rating (mustard, wild; Postemergence, 31 g ai/ha): 100; Mustard, Wild plant response rating (mustard, wild; Postemergence, 125 g ai/ha): 100; Mustard, Wild plant response rating (mustard, wild; Postemergence, 250 g ai/ha): 100; Mustard, Wild plant response rating (mustard, wild; postemergence, 62 g ai/ha): 100; Plant response rating, Kochia (kochia; 62 g ai/ha): 95; Plant response rating, Kochia (kochia; 125 g ai/ha): 100; Plant response rating, Kochia (kochia; 250 g ai/ha): 100; Plant response rating, Galium (galium; 62 g ai/ha): 100; Plant response rating, Galium (galium; 125 g ai/ha): 100; Plant response rating, Galium (galium; 250 g ai/ha): 100
CCOc1cc(C(=O)NC2CC2)nn1Cc1ccnc(C(F)(F)F)c1 [Compound 189]	100	100	100	100	15	20	30	15	15	15	20	15	10	40	80	15	65	85	60	80	Plant response rating, Blackgrass (blackgrass; 31 g ai/ha): 35; Plant response rating, Blackgrass (blackgrass; 250 g ai/ha): 100; Plant response rating, Canarygrass (canarygrass [2]; 31 g ai/ha): 10; Plant response rating, Canarygrass (canarygrass [2]; 62 g ai/ha): 50; Plant response rating, Canarygrass (canarygrass [2]; 125 g ai/ha): 85; Plant response rating, Canarygrass (canarygrass [2]; 250 g ai/ha): 100; Mustard, Wild plant response rating (mustard, wild; Postemergence, 31 g ai/ha): 40; Mustard, Wild plant response rating (mustard, wild; Postemergence, 125 g ai/ha): 40; Mustard, Wild plant response rating (mustard, wild; Postemergence, 250 g ai/ha): 80; Mustard, Wild plant response rating (mustard, wild; postemergence, 62 g ai/ha): 40; Plant response rating, Kochia (kochia; 62 g ai/ha): 100; Plant response rating, Kochia (kochia; 125 g ai/ha): 100; Plant response rating, Kochia (kochia; 250 g ai/ha): 100; Plant response rating, Galium (galium; 62 g ai/ha): 75; Plant response rating, Galium (galium; 125 g ai/ha): 70; Plant response rating, Galium (galium; 250 g ai/ha): 100
